Measured values as given in PubChem BioAssay (NCI).
Values joined by “and” are separate entries in the source; they are usually repeats but may differ in a detail not shown here. Equal entries are not always repeated.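 Growth conditions: 96-well plates. Treatment: test compound, 48 hours, 5 concentrations. Analysis: linear interpolation between bracketing concentrations; unreached endpoints set to highest concentration. Here, GI50 denotes the concentration required for 50% inhibition of growth. TGI denotes the concentration required for complete inhibition of growth.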

How the values were obtained:
Assay in all cases: NCI anticancer screen, dose series, 48 h
SF-539 CNS = tested on: SF-539 CNS
SF-268 CNS = tested on: SF-268 CNS
HOP-92 NSCLC = tested on: HOP-92 NSCLC
HS 578T breast = tested on: HS 578T breast
MDA-MB-231 breast = tested on: MDA-MB-231 breast
SK-MEL-5 melanoma = tested on: SK-MEL-5 melanoma
T-47D breast = tested on: T-47D breast
NCI-H23 lung = tested on: NCI-H23 lung

SMILES | GI50 (SF-539 CNS) | TGI (SF-539 CNS) | GI50 (SF-268 CNS) | TGI (SF-268 CNS) | GI50 (HOP-92 NSCLC) | TGI (HOP-92 NSCLC) | GI50 (HS 578T breast) | TGI (HS 578T breast) | GI50 (MDA-MB-231 breast) | TGI (MDA-MB-231 breast) | GI50 (SK-MEL-5 melanoma) | TGI (SK-MEL-5 melanoma) | GI50 (T-47D breast) | TGI (T-47D breast) | GI50 (NCI-H23 lung) | TGI (NCI-H23 lung)
NC(=N\N=C/c1ccc(Cl)cc1Cl)/C(N)=N\N=C/c1ccc(Cl)cc1Cl | 8.3 µM | > 100 µM | 50.4 µM | > 100 µM | 6.54 µM | 56.1 µM | 3.39 µM | > 30.4 µM | 17.1 µM | > 100 µM | > 100 µM | > 100 µM | 1.35 µM | > 76.4 µM | 39.3 µM | > 100 µM
O=C(O)c1ccc(Oc2nc3ccccc3s2)cc1 | – | > 100 µM | – | > 100 µM | – | > 100 µM | – | > 100 µM | – | > 100 µM | – | > 100 µM | – | > 100 µM | – | > 100 µM
O=C(NS(=O)(=O)c1ccc(NC[C@H]2COCCO2)c([N+](=O)[O-])c1)c1ccc(N2CCN(CC3=C(c4ccc(Cl)cc4)CC4(CCC4)CC3)CC2)cc1Oc1cnc2[nH]ccc2c1 | 1.88 µM | 4.03 µM | 2.97 µM | 17.9 µM | 1.43 µM | 3.05 µM | 2.12 µM | 5.76 µM | 1.62 µM | 3.21 µM | 1.6 µM | 2.97 µM | 2.24 µM | 8.99 µM | 2.77 µM | 8.6 µM
COc1cc(/C=C/C(=O)c2c(C)nc3ccccc3c2C)ccc1OCCCCOc1cc2c(cc1OC)C(=O)N1CCC[C@H]1C=N2 | 0.55 µM | 1.54 µM | 0.277 µM | 1.04 µM | 0.19 µM | 0.632 µM | 0.229 µM | 0.624 µM | 0.606 µM | 3.51 µM | 0.517 µM | 1.47 µM | 0.333 µM | 1.36 µM | 0.396 µM | 1.42 µM
CCCCN(CC)CCCCCCCCCCN1CCCc2cc(OC)ccc21 | 3.32 µM | 9.35 µM | 6.52 µM | 32.1 µM | 2.19 µM | 6.76 µM | 4.2 µM | > 100 µM | 2.26 µM | 7.04 µM | 1.73 µM | 3.12 µM | 2.11 µM | 5.83 µM | 2.16 µM | 6.09 µM
CC(C)OCc1cc(CN2CCN(c3cccc(Cl)c3)CC2)c(O)c2ncccc12 | 0.471 µM | 3.48 µM | 0.629 µM | 14.7 µM | 1.43 µM | 19.4 µM | 4.03 µM | 35.3 µM | 0.611 µM | 14.2 µM | 0.445 µM | 2.1 µM | 0.556 µM | 18.4 µM | 1.03 µM | 19 µM
O=c1[nH]c2ccccc2n2cc3ccccc3c12 | 5.11 µM | 22.2 µM | 21.6 µM | 87.1 µM | 3.99 µM | 18.5 µM | 0.52 µM | 34.7 µM | 0.948 µM | 10.2 µM | 1.89 µM | 14.9 µM | 7.45 µM | > 100 µM | 11.1 µM | 36.6 µM
COc1ccc(/C=C/C(=O)c2ccc(Nc3nc(Nc4ccc(F)cc4)nc(Nc4ccc(Cl)cc4)n3)cc2)cc1 | 2.23 µM | 19 µM | > 100 µM | > 100 µM | 31.1 µM | 88.7 µM | 14.6 µM | 52.3 µM | 29.5 µM | > 100 µM | 1.03 µM | 27.2 µM | 72.6 µM | > 100 µM | > 100 µM | > 100 µM
O=C(/C=C/c1cccc(S(=O)(=O)Nc2ccccc2)c1)NO | 0.696 µM and 0.13 µM | 20.9 µM and 23.9 µM | 1.22 µM and 0.324 µM | 15.6 µM and 8.91 µM | 0.27 µM and 0.074 µM | 2.19 µM and 1.21 µM | 1.28 µM and 0.52 µM | > 81.8 µM and 34.9 µM | 0.577 µM and 0.216 µM | 19.9 µM and 5.63 µM | – | 1.03 µM and 0.192 µM | 0.227 µM and 0.144 µM | – | 0.707 µM and 0.112 µM | 7.47 µM and 2.69 µM
CCOc1cc(/C=C/C(=O)C(C(=O)/C=C/c2ccc(OC(=O)CNc3nnc(C)s3)c(OCC)c2)C(=O)CNc2nnc(C)s2)ccc1OC(=O)CNc1nnc(C)s1 | 1.17 µM | 3.42 µM | 1.36 µM | 4.13 µM | 2.13 µM | 6.6 µM | 2.28 µM | 12.4 µM | 1.99 µM | 6.15 µM | 1.71 µM | 3.29 µM | 3.4 µM | 35.6 µM | 1.97 µM | 5.58 µM
O=C1/C(=C\c2ccccc2)CN(C(=O)c2ccccc2)C/C1=C\c1ccccc1 | 2.27 µM | 6.24 µM | 3.4 µM | 14.8 µM | 3.28 µM | 21 µM | 2.31 µM | 7.21 µM | 2.2 µM | 5.02 µM | 1.64 µM | 3.06 µM | 4.93 µM | 19.9 µM | 3.62 µM | 12.4 µM
CN(CSc1ccc(Cl)cc1)c1ccc(CSc2ccc(Cl)cc2)cc1 | 2.35 µM | 6.48 µM | 1.46 µM | 10.4 µM | 3.56 µM | 16.9 µM | 3.7 µM | 21.1 µM | 1.8 µM | 5.9 µM | 6.85 µM | 19.8 µM | 4.22 µM | 72 µM | 4.24 µM | 19.5 µM
